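All cell lines were grown in 96-well plates and treated with compound for 48 hours. Here, GI50 denotes the concentration required for 50% inhibition of growth. At the TGI there is no net growth.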
Legend:
Assay in all cases: NCI anticancer screen, dose series, 48 h
A498 renal = tested on: A498 renal
IGROV1 ovarian = tested on: IGROV1 ovarian
SK-MEL-5 melanoma = tested on: SK-MEL-5 melanoma
CCRF-CEM leukemia = tested on: CCRF-CEM leukemia
RXF 393 renal = tested on: RXF 393 renal
SN12C renal = tested on: SN12C renal
SNB-19 CNS = tested on: SNB-19 CNS
SR leukemia = tested on: SR leukemia
OVCAR-4 ovarian = tested on: OVCAR-4 ovarian
UACC-257 melanoma = tested on: UACC-257 melanoma
NCI-H23 lung = tested on: NCI-H23 lung
COLO 205 colon = tested on: COLO 205 colon
OVCAR-8 ovarian = tested on: OVCAR-8 ovarian
RPMI-8226 leukemia = tested on: RPMI-8226 leukemia
BT-549 breast = tested on: BT-549 breast
MCF7 breast = tested on: MCF7 breast
SNB-75 CNS = tested on: SNB-75 CNS
KM12 colon = tested on: KM12 colon
CAKI-1 renal = tested on: CAKI-1 renal
HCC-2998 colon = tested on: HCC-2998 colon
UACC-62 melanoma = tested on: UACC-62 melanoma
ACHN renal = tested on: ACHN renal
SK-OV-3 ovarian = tested on: SK-OV-3 ovarian
K-562 leukemia = tested on: K-562 leukemia
MDA-MB-231 breast = tested on: MDA-MB-231 breast
LOX IMVI melanoma = tested on: LOX IMVI melanoma
NCI-H226 lung = tested on: NCI-H226 lung
MALME-3M melanoma = tested on: MALME-3M melanoma
SF-268 CNS = tested on: SF-268 CNS
NCI-H522 lung = tested on: NCI-H522 lung
T-47D breast = tested on: T-47D breast
NCI-H460 lung = tested on: NCI-H460 lung
NCI/ADR-RES ovarian = tested on: NCI/ADR-RES ovarian
M14 melanoma = tested on: M14 melanoma
DU-145 prostate = tested on: DU-145 prostate
HT29 colon = tested on: HT29 colon
SW-620 colon = tested on: SW-620 colon
SF-295 CNS = tested on: SF-295 CNS
OVCAR-5 ovarian = tested on: OVCAR-5 ovarian
HCT-116 colon = tested on: HCT-116 colon
HCT-15 colon = tested on: HCT-15 colon
EKVX NSCLC = tested on: EKVX NSCLC
PC-3 prostate = tested on: PC-3 prostate
SF-539 CNS = tested on: SF-539 CNS
MOLT-4 leukemia = tested on: MOLT-4 leukemia
SK-MEL-2 melanoma = tested on: SK-MEL-2 melanoma
HOP-92 NSCLC = tested on: HOP-92 NSCLC
MDA-MB-435 = tested on: MDA-MB-435
U251 CNS = tested on: U251 CNS
HS 578T breast = tested on: HS 578T breast
786-0 renal = tested on: 786-0 renal
HOP-62 NSCLC = tested on: HOP-62 NSCLC
OVCAR-3 ovarian = tested on: OVCAR-3 ovarian
UO-31 renal = tested on: UO-31 renal
SK-MEL-28 melanoma = tested on: SK-MEL-28 melanoma
TK-10 renal = tested on: TK-10 renal
HL-60(TB) leukemia = tested on: HL-60(TB) leukemia
A549 NSCLC = tested on: A549 NSCLC

## COc1ccc(C2CC(n3nnnc3-c3ccccc3)=NN2)cc1 (centres undefined)
A498 renal
  GI50: 18.6 µM
  TGI: 55.1 µM
IGROV1 ovarian
  GI50: 2.44 µM
  TGI: > 100 µM
SK-MEL-5 melanoma
  GI50: 2.12 µM
  TGI: 7.81 µM
CCRF-CEM leukemia
  GI50: 0.499 µM
  TGI: 51.1 µM
RXF 393 renal
  GI50: 21.1 µM
  TGI: 95.6 µM
SN12C renal
  GI50: 12.7 µM
  TGI: > 100 µM
SNB-19 CNS
  GI50: 18.1 µM
  TGI: > 100 µM
SR leukemia
  GI50: 35.6 µM
  TGI: > 100 µM
OVCAR-4 ovarian
  GI50: 1.11 µM
  TGI: 94.8 µM
UACC-257 melanoma
  GI50: 2.76 µM
  TGI: 12.6 µM
NCI-H23 lung
  GI50: 10.8 µM
  TGI: 41.7 µM
COLO 205 colon
  GI50: 3.5 µM
  TGI: 11.7 µM
OVCAR-8 ovarian
  GI50: 4.07 µM
  TGI: 61.7 µM
RPMI-8226 leukemia
  GI50: 2.88 µM
  TGI: 53.5 µM
BT-549 breast
  GI50: 8.89 µM
  TGI: 37.6 µM
MCF7 breast
  GI50: 2.68 µM
  TGI: 38.7 µM
SNB-75 CNS
  GI50: 14.4 µM
  TGI: 54 µM
KM12 colon
  GI50: 0.617 µM
  TGI: 13.6 µM
CAKI-1 renal
  GI50: 0.38 µM
  TGI: 2.98 µM
HCC-2998 colon
  GI50: 3.41 µM
  TGI: 17.2 µM
UACC-62 melanoma
  GI50: 0.465 µM
  TGI: 12.5 µM
ACHN renal
  GI50: 1.44 µM
  TGI: 22.4 µM
SK-OV-3 ovarian
  GI50: 22.4 µM
  TGI: 66.1 µM
K-562 leukemia
  GI50: 0.486 µM
  TGI: 28.2 µM
MDA-MB-231 breast
  GI50: 0.564 µM
  TGI: 12.8 µM
LOX IMVI melanoma
  GI50: 0.693 µM
  TGI: 15.2 µM
NCI-H226 lung
  GI50: 4.98 µM
  TGI: 22.8 µM
MALME-3M melanoma
  GI50: 2.66 µM
  TGI: 20.3 µM
SF-268 CNS
  GI50: 6.38 µM
  TGI: 54.5 µM
NCI-H522 lung
  GI50: 1.16 µM
  TGI: 20.4 µM
T-47D breast
  GI50: 1.16 µM
  TGI: 87.3 µM
NCI-H460 lung
  GI50: 2.84 µM
  TGI: 13.7 µM
NCI/ADR-RES ovarian
  GI50: 4.3 µM
  TGI: 33.7 µM
M14 melanoma
  GI50: 0.6 µM
  TGI: 14.6 µM
DU-145 prostate
  GI50: 12.9 µM
  TGI: 49.3 µM
HT29 colon
  GI50: 2.82 µM
  TGI: 17.9 µM
SW-620 colon
  GI50: 2.82 µM
  TGI: 25.1 µM
SF-295 CNS
  GI50: 0.662 µM
  TGI: 3.12 µM
OVCAR-5 ovarian
  GI50: 5.59 µM
  TGI: 61.7 µM
HCT-116 colon
  GI50: 4.87 µM
  TGI: 22.3 µM
HCT-15 colon
  GI50: 2.16 µM
  TGI: 26.2 µM
EKVX NSCLC
  GI50: 1.8 µM
  TGI: 36.3 µM
PC-3 prostate
  GI50: 6.28 µM
  TGI: 72.3 µM
SF-539 CNS
  GI50: 2.34 µM
  TGI: 5.87 µM
MOLT-4 leukemia
  GI50: 5.99 µM
  TGI: 42.6 µM
SK-MEL-2 melanoma
  GI50: 11.6 µM
  TGI: 32.7 µM
HOP-92 NSCLC
  GI50: 11.6 µM
  TGI: 42.6 µM
MDA-MB-435
  GI50: 0.974 µM
  TGI: 15.6 µM
U251 CNS
  GI50: 9.88 µM
  TGI: 35.9 µM
HS 578T breast
  GI50: 19.7 µM
  TGI: 70.3 µM
786-0 renal
  GI50: 4.61 µM
  TGI: 37.3 µM
HOP-62 NSCLC
  GI50: 12.8 µM
  TGI: 45.8 µM
OVCAR-3 ovarian
  GI50: 3.05 µM
  TGI: 12 µM
UO-31 renal
  GI50: 1.39 µM
  TGI: 11.7 µM
SK-MEL-28 melanoma
  GI50: 13.3 µM
  TGI: > 100 µM

## FCc1ncc(-c2ccc(C(F)(F)F)cc2)c(NC2CCCCCC2)n1
A498 renal
  GI50: > 10 µM
  TGI: > 10 µM
IGROV1 ovarian
  GI50: > 10 µM
  TGI: > 10 µM
SK-MEL-5 melanoma
  GI50: > 10 µM
  TGI: > 10 µM
CCRF-CEM leukemia
  GI50: > 10 µM
  TGI: > 10 µM
RXF 393 renal
  GI50: > 10 µM
  TGI: > 10 µM
SN12C renal
  GI50: > 10 µM
  TGI: > 10 µM
SNB-19 CNS
  GI50: > 10 µM
  TGI: > 10 µM
SR leukemia
  GI50: > 10 µM
  TGI: > 10 µM
OVCAR-4 ovarian
  GI50: > 10 µM
  TGI: > 10 µM
UACC-257 melanoma
  GI50: > 10 µM
  TGI: > 10 µM
NCI-H23 lung
  GI50: > 10 µM
  TGI: > 10 µM
COLO 205 colon
  GI50: > 10 µM
  TGI: > 10 µM
OVCAR-8 ovarian
  GI50: > 10 µM
  TGI: > 10 µM
RPMI-8226 leukemia
  GI50: > 10 µM
  TGI: > 10 µM
BT-549 breast
  GI50: > 10 µM
  TGI: > 10 µM
MCF7 breast
  GI50: > 10 µM
  TGI: > 10 µM
TK-10 renal
  GI50: > 10 µM
  TGI: > 10 µM
SNB-75 CNS
  GI50: > 10 µM
  TGI: > 10 µM
KM12 colon
  GI50: > 10 µM
  TGI: > 10 µM
CAKI-1 renal
  GI50: > 10 µM
  TGI: > 10 µM
HCC-2998 colon
  GI50: > 10 µM
  TGI: > 10 µM
UACC-62 melanoma
  GI50: > 10 µM
  TGI: > 10 µM
ACHN renal
  GI50: > 10 µM
  TGI: > 10 µM
SK-OV-3 ovarian
  GI50: > 10 µM
  TGI: > 10 µM
K-562 leukemia
  GI50: > 10 µM
  TGI: > 10 µM
MDA-MB-231 breast
  GI50: > 10 µM
  TGI: > 10 µM
LOX IMVI melanoma
  GI50: > 10 µM
  TGI: > 10 µM
NCI-H226 lung
  GI50: > 10 µM
  TGI: > 10 µM
MALME-3M melanoma
  GI50: > 10 µM
  TGI: > 10 µM
SF-268 CNS
  GI50: > 10 µM
  TGI: > 10 µM
HL-60(TB) leukemia
  GI50: > 10 µM
  TGI: > 10 µM
NCI-H522 lung
  GI50: > 10 µM
  TGI: > 10 µM
T-47D breast
  GI50: > 10 µM
  TGI: > 10 µM
NCI-H460 lung
  GI50: > 10 µM
  TGI: > 10 µM
NCI/ADR-RES ovarian
  GI50: > 10 µM
  TGI: > 10 µM
M14 melanoma
  GI50: > 10 µM
  TGI: > 10 µM
DU-145 prostate
  GI50: > 10 µM
  TGI: > 10 µM
HT29 colon
  GI50: > 10 µM
  TGI: > 10 µM
SW-620 colon
  GI50: > 10 µM
  TGI: > 10 µM
SF-295 CNS
  GI50: > 10 µM
  TGI: > 10 µM
OVCAR-5 ovarian
  GI50: > 10 µM
  TGI: > 10 µM
HCT-116 colon
  GI50: > 10 µM
  TGI: > 10 µM
HCT-15 colon
  GI50: > 10 µM
  TGI: > 10 µM
PC-3 prostate
  GI50: > 10 µM
  TGI: > 10 µM
SF-539 CNS
  GI50: > 10 µM
  TGI: > 10 µM
MOLT-4 leukemia
  GI50: > 10 µM
  TGI: > 10 µM
SK-MEL-2 melanoma
  GI50: > 10 µM
  TGI: > 10 µM
HOP-92 NSCLC
  GI50: 5.29 µM
  TGI: > 10 µM
MDA-MB-435
  GI50: > 10 µM
  TGI: > 10 µM
U251 CNS
  GI50: > 10 µM
  TGI: > 10 µM
HS 578T breast
  GI50: > 10 µM
  TGI: > 10 µM
786-0 renal
  GI50: > 10 µM
  TGI: > 10 µM
HOP-62 NSCLC
  GI50: > 10 µM
  TGI: > 10 µM
OVCAR-3 ovarian
  GI50: > 10 µM
  TGI: > 10 µM
UO-31 renal
  GI50: > 10 µM
  TGI: > 10 µM
SK-MEL-28 melanoma
  GI50: > 10 µM
  TGI: > 10 µM
A549 NSCLC
  GI50: > 10 µM
  TGI: > 10 µM
